Data: ChEMBL document CHEMBL4196057, “The chemical diversity and structure-based evolution of non-peptide CXCR4 antagonists with diverse therapeutic potential” (Eur J Med Chem, 2018)
pEC50, pIC50: −log10 of the molar value. One block for each compound: values may come before it.

Legend:
[1] = target: T1, C-X-C chemokine receptor type 4 (Homo sapiens, UniProt P61073); test: Displacement of [125I]SDF-1 from human CXCR4 expressed in HEK293 cell membranes after 1.5 hrs by Topcount method
[2] = system: Human immunodeficiency virus 1; test: Antiviral activity against HIV1 infected in human PBMC measured at 7 to 10 days post infection by ELISA; type: functional, organism-based; settings: Human immunodeficiency virus 1, PBMC
[3] = system: Human immunodeficiency virus 1; test: Antiviral activity against HIV1 3B infected in human MT4 cells assessed as inhibition of virus induced cytopathic effect after 5 days by MTT assay; type: functional, organism-based; settings: Human immunodeficiency virus 1, 3B, MT4, 120 h
[4] = target: T1, C-X-C chemokine receptor type 4; test: Inhibition of SDF-1 binding to CXCR4 (unknown origin)
[5] = target: T1, C-X-C chemokine receptor type 4; test: Inhibition of SDF-1 binding to CXCR4 (unknown origin) at 10 uM relative to control
[6] = target: T1, C-X-C chemokine receptor type 4; test: Antagonist activity at CXCR4 (unknown origin); type: functional
[7] = system: Human immunodeficiency virus; test: Antiviral activity against HIV R4; type: functional, organism-based; settings: Human immunodeficiency virus 1, R4
[8] = system: Human immunodeficiency virus 1; test: Antiviral activity against HIV1 assessed as inhibition of virus induced cytopathic effect; type: functional, organism-based
[9] = system: Human immunodeficiency virus 1; test: Antiviral activity against HIV1 3B infected in human PBMC after 1 hr by ELISA; type: functional, organism-based; settings: Human immunodeficiency virus 1, 3B
[10] = system: Human immunodeficiency virus 1; test: Antiviral activity against HIV1 R5 infected in human PBMC after 1 hr by ELISA; type: functional, organism-based; settings: Human immunodeficiency virus 1, R5, PBMC
[11] = system: Human immunodeficiency virus 1; test: Antiviral activity against HIV1 NL4-3 infected in human PBMC after 1 hr by ELISA; type: functional, organism-based; settings: Human immunodeficiency virus 1, NL4-3, PBMC
[12] = system: Human immunodeficiency virus 1; test: Antiviral activity against HIV1 R5/X4 infected in human PBMC after 1 hr by ELISA; type: functional, organism-based; settings: Human immunodeficiency virus 1, R5/X4, PBMC
[13] = system: Human immunodeficiency virus 1; test: Antiviral activity against HIV1 3B; type: functional, organism-based; settings: Human immunodeficiency virus 1, 3B
[14] = Plasma concentration in Wistar rat at 200 mg/ml/kg administered intraduodenal after 60 mins by LC-MS analysis; type: ADME
[15] = system: Human immunodeficiency virus 1; test: Antiviral activity against HIV1 3B infected in human MT4 cells assessed as inhibition of virus replication by MTT assay; type: functional, organism-based; settings: Human immunodeficiency virus 1, 3B
[16] = target: T1, C-X-C chemokine receptor type 4; test: Displacement of [125I]SDF-1alpha from CXCR4 in human MT4 cells after 2 hrs by scintillation counting analysis; type: cell-based
[17] = Bioavailability in Wistar rat at 200 mg/ml/kg administered intraduodenal by LC-MS analysis; type: ADME, organism-based; settings: in vivo
[18] = Cytotoxicity against human MT4 cells assessed as reduction in cell viability; type: cell-based

T1 sequence (P61073 whole entry): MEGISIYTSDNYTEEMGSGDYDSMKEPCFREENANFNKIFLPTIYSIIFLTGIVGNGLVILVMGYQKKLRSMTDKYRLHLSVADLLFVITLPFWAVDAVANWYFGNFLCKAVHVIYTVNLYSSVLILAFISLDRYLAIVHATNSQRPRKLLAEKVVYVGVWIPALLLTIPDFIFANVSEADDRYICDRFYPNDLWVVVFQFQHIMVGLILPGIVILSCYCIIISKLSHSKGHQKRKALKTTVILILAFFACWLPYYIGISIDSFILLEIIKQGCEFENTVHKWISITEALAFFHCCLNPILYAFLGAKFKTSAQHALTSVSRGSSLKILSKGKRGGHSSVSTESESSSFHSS

Structure (SMILES): CC1CCCCN1CCCNCc1ccc(CN2CCCNCCNCCCNCC2)cc1 (centres undefined)
pEC50 [3]: 7.36

Structure (SMILES): c1ccc(CCNC[C@@H]2CCN(CCc3c[nH]c4ccc(-n5cnnc5)cc34)C2)cc1
pIC50 [4]: 7.70 to 8.15

Structure (SMILES): c1ccc(CN2CCC(Nc3nccc(N4CCCCCC4)n3)C2)cc1 (centres undefined)
inhibition [5]: > 50%

Structure (SMILES): CC(NC[C@@H]1CCN(CCc2c[nH]c3ccc(-n4cnnc4)cc23)C1)c1ccccc1 (some centres undefined)
pIC50 [4]: 7.70 to 8.15

Structure (SMILES): c1cc(CN2CCCNCCNCCCNCC2)ccc1CNCCCN1CCOCC1
pEC50 [3]: 6.87

Structure (SMILES): CN(CCc1ccccc1)C[C@@H]1CCN(CCc2c[nH]c3ccc(-n4cnnc4)cc23)C1
pIC50 [4]: 7.70 to 8.15

Structure (SMILES): CC(C)(NC[C@@H]1CCN(CCc2c[nH]c3ccc(-n4cnnc4)cc23)C1)c1ccccc1
pIC50 [4]: 7.70 to 8.15

Structure (SMILES): CN1CCN(c2cc(N)nc(NCc3ccc(CNCCCNC4CCCCC4)cc3)n2)CC1
pIC50 [6]: > 7.70

Structure (SMILES): Clc1cc(CN2CCCNCCNCCCNCC2)cc(Cl)n1
pIC50 [9]: 4.58 to 5.92 | pIC50 [10]: 4.58 to 5.92 | pIC50 [11]: 4.58 to 5.92 | pIC50 [12]: 4.58 to 5.92

Structure (SMILES): CC(C)Oc1ccc(-c2ccc3ccn(CC(=O)NCCN(C)C4CCCCC4)c3c2)cc1
pIC50 [4]: > 6.00

Structure (SMILES): CCCN(CCC)Cc1ccc(NC(=O)c2ccc(CN(Cc3ncc[nH]3)Cc3ncc[nH]3)cc2)cc1
pEC50 [2]: 8.70

Structure (SMILES): CC(C)c1ccccc1NC(=O)NCCc1ccc2c(n1)NCCC2
pIC50 [6]: 6.10 | pIC50 [7]: 4.30 to 6.70

Structure (SMILES): CC1CCCCN1CCCNCc1ccc(CNCCCN2CCCCC2C)cc1 (centres undefined)
pEC50 [3]: 7.71

Structure (SMILES): COc1ccc(NC(=O)NCCc2ccc3c(n2)NCCC3)cc1OC
pIC50 [6]: 6.17 | pIC50 [7]: 4.30 to 6.70

Structure (SMILES): Cc1ccsc1CN1CCC2(CC1)CCN(Cc1ccc(C(=O)N(Cc3ncc[nH]3)Cc3ncc[nH]3)cc1)C2
pIC50 [4]: 7.96

Structure (SMILES): NCCNc1nccc(N2CCCCCC2)n1
inhibition [5]: > 50%

Structure (SMILES): c1ccc(CNCc2ccc(CN3CCNCCCOCCCNCC3)cc2)nc1
pEC50 [8]: 8.40

Structure (SMILES): CC(C)CN(CCC[C@H](NC(=O)c1ccc(CNCc2ncc[nH]2)cc1)C(=O)N[C@@H](C)c1cccc2ccccc12)CC(C)C
pEC50 [3]: 8.17

Second part, led by results:

pIC50 [1]: 7.44
Structure (SMILES): c1ccc2c(NC3CCNCC3)nc(NCc3ccc(CNCCCNC4CCCCC4)cc3)nc2c1

pEC50 [2]: 8.52
Structure (SMILES): CC(C)CN(CCCCNC(=O)c1ccc(CN(Cc2ncc[nH]2)Cc2ncc[nH]2)cc1)CC(C)C

pIC50 [6]: 6.70 | pIC50 [7]: 4.30 to 6.70
Structure (SMILES): FC(F)(F)c1ccc(NC(=S)NCCc2ccc3c(n2)NCCC3)cc1

pIC50 [6]: > 7.70
Structure (SMILES): Nc1cc(N2CCNCC2)nc(NCc2ccc(CNCCCNC3CCCCC3)cc2)n1

pEC50 [8]: 9.00
Structure (SMILES): c1ccc(CNCc2ccc(CN3CCNCCc4cccc(n4)CCNCC3)cc2)nc1

pIC50 [1]: 5.67
Structure (SMILES): CCN(CC)CCCC(C)Nc1cc(/C=C/c2ccc([N+](=O)[O-])cc2)nc2cc(OC)ccc12 (centres undefined)

pIC50 [6]: 7.00 to 8.40
Structure (SMILES): c1ccc(CNCCN(CCNCc2ccccn2)Cc2ccc(CNCc3nc4ccccc4[nH]3)cc2)nc1

pIC50 [6]: 6.40 | pIC50 [7]: 4.30 to 6.70
Structure (SMILES): Cn1ccc2c(NC(=O)NCCc3ccc4c(n3)NCCC4)cccc21

pEC50 [2]: 9.00 to 9.52
Structure (SMILES): CCCN(CCC)CCCCN(C)Cc1ccc(CN(Cc2ncc[nH]2)Cc2nccn2C)cc1

pIC50 [6]: 6.22 | pIC50 [7]: 4.30 to 6.70
Structure (SMILES): O=C(NCCc1ccc2c(n1)NCCC2)Nc1cccc2ccccc12

pEC50 [13]: 8.52
Structure (SMILES): c1cc(CN2CCCNCCNCCCNCC2)ccc1CN1CCCNCCNCCCNCC1 [PLERIXAFOR]

pIC50 [6]: 7.00 to 8.40
Structure (SMILES): COc1ccc2[nH]c(CNCc3ccc(CN(CCNCc4ccccn4)CCNCc4ccccn4)cc3)nc2c1

pEC50 [13]: 6.61
Structure (SMILES): C1CNCCNCCCN(CCCN2CCCNCCNCCCNCC2)CCNC1

pIC50 [6]: 6.22 | pIC50 [7]: 4.30 to 6.70
Structure (SMILES): O=C(NCCc1ccc2c(n1)NCCC2)Nc1ccc(C(F)(F)F)cc1

pEC50 [13]: 6.84
Structure (SMILES): C1CNCCNCCCNC(C2CNCCCNCCNCCCN2)CNC1 (centres undefined)

pEC50 [8]: 8.05
Structure (SMILES): c1ccc(CNCc2ccc(CN3CCCNCCNCCCNCC3)cc2)nc1

pEC50 [2]: 8.70
Structure (SMILES): CCCN(CCC)CCCCNCc1ccc(CN(Cc2ncc[nH]2)Cc2ncc[nH]2)cc1

concentration at 1 h [14]: 30.6 µM | pIC50 [16]: 7.89 | bioavailability [17]: 7%
Structure (SMILES): C[C@H](NC(=O)[C@H](CCCNC(=N)N)NC(=O)c1ccc(CNCc2ccccn2)cc1)c1cccc2ccccc12
pEC50 [15]: 7.71 | CC50 [18]: 400000 nM
